The values below come from a melting point compilation (Tetko et al.).

What is called melting point is the temperature, or range, at which the solid turns liquid.

Turning to `Cc1ccc(-c2csc(/C(C#N)=N\Nc3ccc(O)cc3)n2)cc1`, the melting point came out at 252 °C. `NCCNC(=O)C(=O)NCc1ccccn1` came in with a melting point of 257 °C. For `N#CCC(=O)c1cccc(Cl)c1` the value was 81 °C; for `COc1cc(Br)cc(Br)c1`, 41.5 °C; for `Cc1c(-c2ccccc2)n(C)c2ccccc12`, 69 °C.

Turning to `O=C(O)c1ccccc1C(=O)Nc1cccc2ccccc12`, the melting point came to 185 °C. As to `CC1=C(C(=O)OC(C)(C)C)C(c2ccco2)NC(=O)N1` (stereo unspecified), the melting point stood at 208 °C.

For `Cc1cc(Cl)c(Cl)c(Cl)c1`, the melting point worked out at 45.5 °C.

In turn, `Cc1cc(Cl)cc(Cl)c1` returned a melting point of 26 °C. For `Ic1ccc(N2CCOCC2)cc1` the value was 131 to 132 °C; for `Cc1ccc(-c2cc(C(=O)O)c(C)o2)cc1`, 230 to 232 °C. Under `CCOC(=O)c1c(NS(=O)(=O)c2ccc(Cl)cc2)nn(-c2ccc([N+](=O)[O-])cc2)c1N` stands 200 °C. As for `CCC1(O)CCC2C3CCC4=CCCCC4C3CCC21C` (stereo unspecified), the melting point was determined as 77 °C. Under `CC(=O)Nc1c(Cl)cccc1Cl` stands 181 °C; under `CCCc1nc(O)n(-c2ccccc2)n1`, 146 °C; under `O=S(=O)(Cl)c1c(Cl)cc(C(F)(F)F)cc1Cl`, 48 °C. For `Cc1cc(N)n(C)n1` the value was 75 °C; for `CSc1nc(=O)[nH]c2c1CCCC2`, 264 to 266 °C; for `Cc1cc2c(C)ccc(C)c2cc1C`, 64 °C. For the molecule `O=C1CCC(c2ccccc2)(C2CCN(Cc3ccccc3)CC2)C(=O)N1` (stereo unspecified), the melting point is 156 °C. `COC(=O)C(C)N(C(=O)c1ccco1)c1c(C)cccc1C` (stereo unspecified) gave a melting point of 102 °C. The molecule `O=C1Cc2cccc(Cl)c21` registered a melting point of 71 °C.

With `Ic1cccs1`, the melting point is -40 °C. In the case of `O=C(CCC(O)c1ccccc1)c1ccccc1` (stereo unspecified), the melting point was 95 °C. For `CCOP(=S)(OCC)Oc1ccc2c(C)c(Cl)c(=O)oc2c1` the value was 95 °C.

As for `COC(=O)C1C2(C)C=CC(O2)C1(OC)OC` (stereo unspecified), the melting point fell in the range of 60 to 62 °C. `S=C(NC1CCCCC1)C(=S)NC1CCCCC1` had a melting point of 150 to 152 °C. For `Cc1cccc(C)c1C#N` the value was 90 °C; for `O=C1NC2CCCC12` (stereo unspecified), 45 to 50 °C. As for `Cc1onc(-c2ccccc2Cl)c1C(=O)O`, the melting point stood at 190 °C. Take `CC12CCC(C(CCC3C(=O)C4(C)CCC3C4(C)C)C1=O)C2(C)C` (stereo unspecified): the melting point amounted to 210 °C. For the molecule `ClC1=C(Cl)C(Cl)(C2(Cl)C(Cl)=C(Cl)C(Cl)=C2Cl)C(Cl)=C1Cl`, the melting point came to 122 °C. For `CCCCC(CC)COC(C)=O` (stereo unspecified) the value was -45 °C. For `O=c1/c(=C/c2ccc3c(c2)OCO3)sc2n1CCCN=2` the value was 151 °C; for `Clc1ccc(-c2c(Cl)cc(Cl)cc2Cl)cc1`, 65 °C. Under `O=Cc1cc(I)cc(I)c1O` stands 108 °C; under `CSc1nc(N)c(C(=O)c2ccc([N+](=O)[O-])cc2)s1`, 200 to 202 °C. In the case of `COC1(OC)CC=CCC(OC)(OC)CC=CC1`, the melting point was in the range of 201 to 202 °C. For `CCCCC(=O)c1ccc(N)cc1` the value was 74.5 °C; for `Nc1ccc(Cn2cccn2)cc1`, 67 to 69 °C; for `O=C(O)C1c2ccccc2-c2ccccc21`, 229 °C.

In turn, `O=C=Nc1cccc2c(N=C=O)cccc12` returned a melting point of 130 °C. Under `O=[N+]([O-])c1cc(Cl)ccc1Sc1ccccc1` stands 82 to 84 °C; under `NNC(=O)c1cccs1`, 139 °C; under `CCc1ccc(CCO)nc1`, 42 °C. Under `O=C1OC(c2ccccc2)=NC1=Cc1ccccc1F` stands 148 to 149 °C. Under `C(#Cc1ccc(/N=C/c2ccccc2)cc1)c1ccc(/N=C/c2ccccc2)cc1` stands 207 °C; under `IC(I)=C(I)I`, 187 °C; under `CC(C)(C)OC(=O)NCCC(=O)O`, 75 °C. The molecule `O=C(O)[C@@H]1C[C@H]1c1ccccc1` (relative stereo) came in with a melting point of 86 to 92 °C. Regarding `CSc1ccc(O)cc1`, the melting point was 86 °C.

`CCC(N)C(=O)O` (stereo unspecified) registered a melting point of 304 °C. Under `FC(F)(F)c1ccccc1CCc1ccccc1C(F)(F)F` stands 75 °C. Regarding `BrCc1ccc(-n2cccc2)cc1`, the melting point lay within 86 to 91 °C.

`O=[N+]([O-])c1ccc(C2Nn3c(nnc3-c3cccc([N+](=O)[O-])c3)S2)cc1` (stereo unspecified): the melting point amounted to 205 °C.

Turning to `CNC(=O)OCc1cccc(COC(=O)NC)n1`, the melting point was found to be 136 °C. For `C=Cc1ccc(CC)cc1` the value was -49.7 °C. Under `CCOC(=O)c1ncn2c1CN(C)C(=O)c1cc(F)ccc1-2` stands 202 °C. For the molecule `Cc1ccc(O)cc1N`, the melting point is 158 °C. On to `COC(=O)C1=C(C(=O)OC)[C@@H]2C=C[C@H]1c1cc3ccccc3c(-c3ccccc3)c12`, for which the melting point was 219 °C. `CC(=O)Oc1ccc(OC(C)=O)c2ccccc12` came in with a melting point of 124 °C. Molecule `O=C(CBr)c1cccc(C(=O)CBr)c1` returned a melting point of 91 °C. Under `FC(F)(F)C(F)(F)C(F)(F)C(F)(F)C(F)(F)C(F)(F)C(F)(F)C(F)(F)C(F)(F)C(F)(F)C(F)(F)C(F)(F)F` stands 75 to 77 °C. On to `Cc1cc(N)ccc1[N+](=O)[O-]`, for which the melting point stood at 135 °C. For the molecule `c1ccc2cc(Nc3ccc(Nc4ccc5ccccc5c4)cc3)ccc2c1`, the melting point worked out at 235 °C. `Cc1onc(-c2c(Cl)cccc2Cl)c1CC#N` came in with a melting point of 75 to 78 °C. Under `CCOC(=O)c1cc2c(oc1=O)-c1ccc(OC)cc1CC2` stands 141 to 142 °C; under `O=C1C(C(O)c2ccccc2Cl)C(C(F)(F)F)=NN1c1ccccc1` (stereo unspecified), 251 °C. As to `COC(=O)c1ccc(OC)cc1O`, the melting point was in the range of 49 to 53 °C. For `Cc1nc(-c2ccc(CBr)cc2)cs1` the value was 73 to 76 °C. Under `O=C1C(Cl)=C(NC(=O)C(Cl)Cl)C(=O)c2ccccc21` stands 212 °C.

Turning to `CC1(C)CC1`, the melting point was -109 °C. For `CCOC(=O)[C@H](Cc1ccc(O)cc1)NC(=O)c1ccccc1` the value was 118 to 121 °C.

For `Cc1cc(C)c2c(=O)n(-c3ccc(Cl)cc3)c(S)nc2n1`, the melting point lay within 324 to 326 °C. Take `CCCCCCCCN(C)C`: the melting point is -57 °C. With `CCCCCCCCCCCCCCCCCC(=O)Cl`, the melting point turned out to be 23 °C. For the molecule `CCOC(=O)C(C)(C)C1(c2ccc(OC)cc2)CCC(=O)O1` (stereo unspecified), the melting point turned out to be 59 °C. `O=C(O)COC(=O)Cc1ccccc1Nc1c(Cl)cccc1Cl` gave a melting point of 149 °C. As to `O=C(NC(=C(NC(=O)c1ccccc1)c1ccccc1)c1ccccc1)c1ccccc1`, the melting point amounted to 100 °C. `COC(=O)c1ccc([N+](=O)[O-])cc1C(=O)OC` yielded a melting point of 67 °C. The molecule `Oc1ccc(C(c2ccccc2)(c2ccccc2)c2ccccc2)cc1` registered a melting point of 283 to 289 °C. Molecule `C1COCCN2CCOCCOCCN(CCO1)CCOCCOCC2` registered a melting point of 68 to 72 °C. For `CCN(CC)CC#CCOC(=O)C(O)(c1ccccc1)C1CCCCC1` (stereo unspecified) the value was 130 °C; for `S=C=Nc1ccc(Cl)cc1Cl`, 38 °C; for `COc1ccc(C(=O)CC(=O)C(F)(F)F)cc1`, 57 to 58 °C. For `NN=C1c2ccccc2C(=O)C1C(=O)C(c1ccccc1)c1ccccc1` (stereo unspecified), the melting point fell in the range of 241 to 243 °C. For `OC1CCN(Cc2ccccc2)CC1` the value was 62 °C. For `COc1cc(NC(=S)Nc2ccc(Br)cc2)c(C(c2ccc(C)o2)c2ccc(C)o2)cc1OC` the value was 167 °C; for `CCCC(=O)c1c(C)cc(C)c(C2CC(=O)C(C(CC)=NOCC)=C(O)C2)c1C` (stereo unspecified), 80.8 °C. For `CCCCCCCCCCCCCCCCCCCCCCCC(=O)O` the value was 84.2 °C. As for `OOC1CCCCC1`, the melting point is -20 °C.

Regarding `Cc1ccc(F)c(C#N)c1`, the melting point worked out at 51 °C. For `COc1cc(CC(=O)O)cc(OC)c1` the value was 103 °C; for `C#CCCCCCC#C`, -21 °C.

Regarding `FC1CCCCC1`, the melting point worked out at 13 °C.

`S=C=Nc1ccc2c(c1)OCO2`: the melting point is 57 to 59 °C. Under `Nc1cc2ccccc2cc1O` stands 235 °C. In turn, `O=C(NCCCC[C@H](NC(=O)OCc1ccccc1)C(=O)O)OCC1c2ccccc2-c2ccccc21` gave a melting point of 101 to 105 °C. Under `CSc1nsc(S)n1` stands 143 to 147 °C; under `O=C(CBr)c1ccco1`, 34 °C.

`O=c1[nH]c2ncccc2o1` came in with a melting point of 214 to 215 °C. In turn, `Cn1ccc2cc(Br)ccc21` registered a melting point of 43 to 44 °C. Under `CC1CCS(=O)(=O)C1` (stereo unspecified) stands 1 °C; under `O=C(O)Cc1cn(-c2ccccc2)nc1-c1ccc(Cl)cc1`, 150 °C; under `COc1cc2c(cc1OC)C(=O)C(CC1CCN(Cc3ccccc3)CC1)C2` (stereo unspecified), 207 °C.

Consider `S=c1oc2ccccc2n1CSCCCS`, for which the melting point is 188 °C. On to `S=C=NCc1ccc(Cl)cc1Cl`, for which the melting point was in the range of 26 to 28 °C. In turn, `CC(Cc1ccccc1)=NNc1ccccc1` came in with a melting point of 85 °C. In turn, `COC(=O)C(C#N)=C(SC)SC` registered a melting point of 85 to 87 °C. `CC12CCC(O)CC1=CCC1C2CCC2(C)C1CCC2(O)C#Cc1ccccc1` (stereo unspecified): the melting point is 162 to 165 °C.

`CC(=O)Nc1ccc(/C=C/c2ccc([N+](=O)[O-])cc2)c([N+](=O)[O-])c1`: the melting point was found to be 236 °C.
